Columns and labels:
human macrophages = experiment: Real-time analysis of phagocytosis of E. coli by human macrophages; type: cell-based; conditions: 1 nM each; for rank of increase in macrophage phagocytosis among individual SPMs: individually
Experimental: Human peripheral blood mononuclear cells from deidentified healthy human volunteers from the Children's Hospital Boston blood bank were isolated by density-gradient, Ficoll-Histopaque isolation, which was followed by monocyte purification. The monocytes were then cultured for 7 days in RPMI 1640, 10% fetal calf serum (FCS) and were differentiated into macrophages through culturing with granulocyte-macrophage colony-stimulating factor (GM-CSF, 20 ng/ml).
Real-time imaging of human macrophages was performed by plating the cells (50,000 cells/well in PBS++) onto 8-well chamber slides. The chamber slides were kept in a Stage Top Incubation system for microscopes equipped with a built-in digital gas mixer and temperature regulator (TOKAI HIT model INUF-K14). A panel of SPMs (RvE1, RvD1, RvD5, LXB4, and MaR1; 1 nM each or in combination) was added to the macrophages for 15 min, which was followed by the addition of BacLight Green-labeled E. coli (at an E. coli:phagocyte ratio of 50:1). Images were then acquired every 10 min for 3 hours at 37 °C with a Keyence BZ-9000 (BIOREVO) inverted fluorescence phase-contrast microscope (20× objective) equipped with a monochrome-color switching camera using BZ-II Viewer software (Keyence). Mean fluorescence intensity was quantified with a BZ-II Analyzer.

[1] = test system: CREB and S6 in neutrophils and monocytes; experiment: Single-cell analysis of intracellular signaling in whole blood leukocytes; type: cell-based, human
[2] = test system: SPM production in human whole blood; experiment: SPM and eicosanoid production during coagulation with heparin, eptifibatide, ADA, celecoxib or BAI; type: cell-based
Experimental: FIG. 2 illustrates regulators of SPM formation in human blood. (A to E) Freshly drawn human peripheral blood (4 ml) containing heparin (10 U/ml) was placed in polypropylene tubes (A) whereas human peripheral blood without anticoagulant was placed in silicone-coated tubes (B to E) and incubated at 37° C. for the time course of 0 to 24 hours (see Example 1, Materials and Methods). The samples were then subjected to snap-freezing for extraction and LC-MS/MS analysis. (A) Concentrations of the members of the SPM cluster (identified in FIG. 1) in samples treated without (Coag.) or with heparin (10 U/ml) during the incubation period. Data are means±SEM of three individual donors. (B) Left: Combined concentrations of the total SPM cluster, prostaglandins, and thromboxanes after 24 hours of coagulation in the presence or absence of the αIIbβ3 inhibitor eptifibatide (Eptifib.; 20 μM). Middle: Clot volumes after 24 hours of coagulation of the indicated samples. Right: Representative clot images. Data are means±SEM of three individual donors. (C) Concentrations of total SPMs and of the indicated individual SPMs after 24 hours of coagulation in the presence or absence of 200 mU ADA. Data are means±SEM of three individual donors. *P<0.05, **P<0.01 by ratio t-test. (D) Top: LC-MS/MS measurements of adenosine concentrations in whole blood at the indicated time points during coagulation in the presence or absence of ADA. **P<0.01 when compared to the zero-hour time point. Bottom: Flow cytometric analysis of the percentage of neutrophil-platelet aggregates, which were defined as being double-positive for CD16 and CD42b, in whole blood allowed to coagulate for the indicated times in the absence (Coag.) or presence of ADA. Data are means±SEM of five individual donors. *P<0.05, **P <0.01 by student's t test. For dot plots and gating, see FIG. 7B. (E) MS/MS fragmentation profiles with diagnostic ions for the indicated SPMs identified in (C). (F) Left: PCA score plot. Red denotes +ADA for 1 hour; yellow, coagulation for 1 hour; green, coagulation for 24 hours; blue, +ADA for 24 hours. Right: PCA loading plot showing temporal clustering of the indicated mediators from three individual donors. Red denotes LM at 1 hour; blue denotes 24 hours with ADA).
FIG. 8 illustrates SPM formation in human blood clots being regulated by lipoxygenase activity. (A and B) Freshly drawn human peripheral blood (4 ml) was placed in silicone-coated tubes at 37° C. for 24 hours and coagulation was stopped by snap-freezing before LC-MS/MS analysis was performed. Concentrations of total SPMs, prostaglandins, and thromboxanes after 24 hours of coagulation (Coag.) in the presence or absence of (A) 100 μM indomethacin (Indo.) (n=six individual donors), (B) 500 nM celecoxib (CLX) or 20 μM BAI (n=three individual donors). […]

E. coli = experiment: Whole blood bacterial killing during coagulation; type: cell-based; conditions: BAI 200 μM, 24 h
Experimental: FIG. 10 illustrates the inhibitor of SPM formation BAI reduces bacterial killing. Freshly drawn human peripheral blood (4 mL) was placed in silicone-coated tubes at 37° C. for 24 h and was either stopped by snap freezing for LC-MS/MS, or supernatants were placed on LB agar plates and incubated overnight at 37° C. before enumeration of bacterial colonies. (A) Bacterial survival and (B) SPM in human peripheral blood (2.0 mL) incubated with E. coli (7×10^8 CFU) in the presence or absence of a LOX inhibitor (BAI) 200 μM for 24 h; 37° C. (n=4 individual donors). Data are means±SEM; *P<0.05, ****P<0.0001 for +BAI vs. Coag using ratio t-test.
Fresh human blood (2.0 ml) without anticoagulant was incubated with E. coli (˜7×108) in the presence or absence of 200 µM baicalein (a LOX inhibitor; Sigma) and allowed to coagulate at 37° C. for 24 hours. Serum from blood were diluted in PBS on ice and aliquots were placed on LB agar and incubated overnight in a 37° C. incubator. Colonies were enumerated.

[3] = test system: prostaglandin, thromboxane and SPM production in human whole blood; experiment: LM metabololipidomics of human whole blood during coagulation in the presence of indomethacin; type: cell-based; conditions: 100 μM indomethacin
Experimental: FIG. 8 illustrates SPM formation in human blood clots being regulated by lipoxygenase activity. (A and B) Freshly drawn human peripheral blood (4 ml) was placed in silicone-coated tubes at 37° C. for 24 hours and coagulation was stopped by snap-freezing before LC-MS/MS analysis was performed. Concentrations of total SPMs, prostaglandins, and thromboxanes after 24 hours of coagulation (Coag.) in the presence or absence of (A) 100 μM indomethacin (Indo.) (n=six individual donors), (B) 500 nM celecoxib (CLX) or 20 μM BAI (n=three individual donors). Data are means±SEM; *P<0.05 for +BAI vs. Coag; ****P<0.0001 for +Indo vs. Coag. using ratio t-test.
Human whole blood was transferred in 4-ml aliquots to negatively charged, silicone-coated 10-ml tubes (BD) without anticoagulant. For experiments with heparin, the heparinized blood was placed in 15-ml polypropylene tubes before incubation at 37° C. For LM profiling at designated times, all samples were immediately subjected to a workup procedure by which whole blood was snap-frozen in a dry ice/isopropanol bath and were returned to room temperature (×3 cycles) before undergoing centrifugation at 100,000 g at 4° C. Supernatants (and clots for select experiments; see FIG. 6) were collected and were subjected to LC-MS/MS LM metabololipidomics. […]

Row | Compound | extent of phagocytosis of E. coli by human macrophages, individual SPMs (human macrophages) | intracellular signaling in neutrophils and monocytes [1] | further results
1 | CCCCC[C@H](O)[C@H](O)/C=C/C=C/C=C\C=C\[C@@H](O)CCCC(=O)O [LXB4, lipoxin B4: (5S, 14R, 15S-trihydroxy-eicosa-6E, 8Z, 10E, 12E-tetraenoic acid)] | statistically significantly enhanced | activated CREB and S6 | rank of increase in macrophage phagocytosis among individual SPMs (human macrophages): greatest increases
2 | CC/C=C\C/C=C\C[C@H](O)\C=C/C=C/C=C/[C@H](O)C/C=C\CCC(=O)O [Maresin 1, maresin 1 (7R, 14S-dihydroxy-docosa-4Z, 8E, 10E, 12Z, 16Z, 19Z-hexaenoic acid)] | statistically significantly enhanced | activated CREB and S6 | 
3 | CC/C=C\C[C@H](O)/C=C/C=C\C=C\C=C\[C@@H](O)[C@@H](O)C/C=C\CCC(=O)O [RvD1, Resolvin D1 (7S, 8R, 17S-trihydroxy-docosa-4Z, 9E, 11E, 13Z, 15E, 19Z-hexaenoic acid)] | statistically significantly enhanced | activated CREB and S6 | 
4 | CC/C=C\C[C@H](O)/C=C/C=C\C/C=C\C=C\[C@@H](O)C/C=C\CCC(=O)O [RvD5, Resolvin D5 (7S, 17S-dihydroxy-docosa-4Z, 8E, 10Z, 13Z, 15E, 19Z-hexaenoic acid)] |  | activated CREB and S6 | 
5 | CC[C@@H](O)/C=C/C=C\C[C@@H](O)/C=C/C=C/C=C\[C@@H](O)CCCC(=O)O [RvE1, Resolvin E1 (5S, 12R, 18R-trihydroxy-eicosa-6Z, 8E, 10E, 14Z, 16E-pentaenoic acid)] | statistically significantly enhanced | activated CREB and S6 | rank of increase in macrophage phagocytosis among individual SPMs (human macrophages): greatest increases
6 | O=c1cc(-c2ccccc2)oc2cc(O)c(O)c(O)c12 [baicalein] |  |  | total amounts of SPMs ([2]; 20 μM BAI, 24 hours): reduced the total amounts of SPMs; increase in bacterial counts in the presence of the lipoxygenase inhibitor (E. coli; P<0.0001): > 10 fold; reduction in the abundances of members of the SPM cluster from coagulation (E. coli; with E. coli): > 80%
7 | COc1ccc2c(c1)c(CC(=O)O)c(C)n2C(=O)c1ccc(Cl)cc1 [indomethacin] |  |  | total SPM amounts compared to absence of inhibitor [3]: did not substantially change; inhibition at 100 µM ([3]; Homo sapiens, 24 hours vs. coagulation alone, read-out: inhibition of total prostaglandin and thromboxane production): > 99%
8 | heparin |  |  | reduction of SPMs in total in blood containing heparin ([2]; heparin 10 U/ml): 98%

— patent US11592453B2, “Personalized metabolomic profiling of specialized pro-resolving mediators” (THE BRIGHAM AND WOMEN'S HOSPITAL, INC., priority 2016, dated 2023)
